We go through one compound from patent publication US8796457B2, “Compound useful for the treatment of degenerative and inflammatory diseases” (Galapagos NV, priority 2009, dated 2014).

The structures appear in SMILES notation.

Data set [1] deals with HeLa cells, STAT signalling. In words: JAK-STAT signalling assay (pSTAT1(2)-luciferase reporter, OSM trigger). Format: cell-based. As to conditions: human OSM 33 ng/mL. How it is done: HeLa cells were maintained in Dulbecco's Modified Eagle's Medium (DMEM) containing 10% heat inactivated fetal calf serum, 100 U/mL penicillin and 100 μg/mL streptomycin. HeLa cells were used at 70% confluence for transfection. 20,000 cells in 87 μL cell culture medium were transiently transfected with 40 ng pSTAT1(2)-luciferase reporter (Panomics), 8 ng of LacZ reporter as internal control reporter and 52 ng of pBSK using 0.32 μL Jet-PEI (Polyplus) as transfection reagent per well in 96-well plate format. After overnight incubation at 37° C., 10% CO2, transfection medium was removed. 75 μL of DMEM+1.5% inactivated fetal calf serum was added. 15 μL of compound at 6.7× concentration was added for 60 min and then 10 μL of human OSM (Peprotech) at 33 ng/mL final concentration. […]
40 μL of cell lysate was used to read β-galactosidase activity by adding 180 μL βGal solution (30 μl ONPG 4 mg/mL+150 μL β-Galactosidase buffer (0.06 M Na2HPO4, 0.04 M NaH2PO4, 1 mM MgCl2)) for 20 min. The reaction was stopped by addition of 50 μL Na2CO3 1 M. Absorbance was read at 405 nm
Luciferase activity was measured using 40 μL cell lysate plus 40 μl of Steadylite® as described by the manufacturer (Perkin Elmer), on the Envision (Perkin Elmer). […]

A short description of data set [2]: Microsomal stability, human. The data set is classed as in vitro ADME. As to conditions: human liver microsomes, 3 μM compound, 37° C. Here is the method: A 10 mM stock solution of compound in DMSO was diluted 1000 fold in a 182 mM phosphate buffer pH7.4 in a 96 deep well plate (Greiner, Cat no. 780285) and pre-incubated at 37° C.
40 μL of deionised water was added to a well of a polypropylene Matrix 2D barcode labelled storage tube (Thermo Scientific) and pre-incubated at 37° C.
A Glucose-6-phophate-dehydrogenase (G6PDH) working stock solution was prepared in 182 mM phosphate buffer pH7.4 and placed on ice before use. A co-factor containing MgCl2, glucose-6-phosphate and NADP+ was prepared in deionised water and placed on ice before use. […]
These plates were sealed with sealing mats (MA96RD-04S) of www.kinesis.co.uk and samples were measured at room temperature on LCMS (ZQ 1525 from Waters) under optimized conditions using Quanoptimize to determine the appropriate mass of the parent molecule.
The samples were analyzed on LCMS with a flow rate of 1 mL/min. […]
Peak area from the parent compound at time 0 was considered to be 100% remaining. The percentage remaining after 1 hour incubation was calculated from time 0 and was calculated as the percentage remaining. […]
The data on microsomal stability are expressed as a percentage of the total amount of compound remaining after 60 minutes.

The nature of data set [3]: Caco2 permeability (bi-directional). The data set is classed as in vitro ADME. As to conditions: human, pH 7.4. How it is done: Bi-directional Caco-2 assays were performed as described below. Caco-2 cells were obtained from European Collection of Cell Cultures (ECACC, cat 86010202) and used after a 21 day cell culture in 24-well Transwell plates (Fisher TKT-545-020B).
2×10^5 cells/well were seeded in plating medium consisting of DMEM+GlutaMAXI+1% NEAA+10% FBS (FetalClone II)+1% Pen/Strep. The medium was changed every 2-3 days.
Test and reference compounds (propranolol and rhodamine123 or vinblastine, all purchased from Sigma) were prepared in Hanks' Balanced Salt Solution containing 25 mM HEPES (pH7.4) and added to either the apical (125 μL) or basolateral (600 μL) chambers of the Transwell plate assembly at a concentration of 10 μM with a final DMSO concentration of 0.25%.
50μM Lucifer Yellow (Sigma) was added to the donor buffer in all wells to assess integrity of the cell layers by monitoring Lucifer Yellow permeation. […]
Lucifer yellow was measured with a Spectramax Gemini XS (Ex 426 nm and Em 538 nm) in a clean 96 well plate containing 150 μL of liquid from basolateral and apical side.
Concentrations of compound in the samples were measured by high performance liquid-chromatography/mass spectroscopy (LC-MS/MS).
The Efflux ratios, as an indication of active efflux from the apical cell surface, were calculated using the ratio of PappB>A/Papp A>B.

One may read the EC50 as the concentration giving half of the maximal effect. A word on the Papp: it is a coefficient for how fast a substance crosses the barrier. Lower therefore signals slow passage. Broadly, the efflux ratio is the permeability from basolateral to apical divided by that in the opposite direction, in the common usage. In data set [1], `CC1(C)CN(C(=O)c2ccc(-c3cccc4nc(NC(=O)C5CC5)nn34)cc2)C1` [Compound 1, Cyclopropanecarboxylic acid{5-[4-(3,3-dimethyl-azetidine-1-carbonyl)-phenyl]-[1,2,4]triazolo[1,5-a]pyridin-2-yl}-amide] displayed a concentration for a half-maximal effect (EC50) of 539 ± 130 nM. Further, the “Microsomal stability, percentage of compound remaining after 60 minutes, Human” value in data set [2] was 76-100%. This compound also came in with an apparent permeability coefficient (Papp) at 1 h, 10 μM in data set [3] (Caco-2, 10 μM, 1 hour, pH7.4) of 7.8 ± 0.8 ×10⁻⁶ cm/s. In data set [3] (Caco-2, Papp B>A / Papp A>B), the efflux ratio at 1 h, 10 μM was 6.1 ± 0.6.
